SMILES strings stand for the structures.

Assay [1] has as its system NCI-H226 cells. As to the kind of experiment: Proliferation and cell viability assay, CellTiter-Glo 2.0 (CTG). It is filed as cell-based, human. The note with it: Homo sapiens, NCI-H226, responder cell line, 144 hrs. Here is the method: (§1) Cell proliferation of a TEAD dependent NF2-null mesothelioma cell line, NCI-H226 was assayed using two different protocols. Results were confirmed in two different TEAD-non-dependent lung cancer cell lines, H23 and H28, were used as non-responsive controls, as indicated:
a) CellTiter-Glo® 2.0 (Promega #G9243). The effect of the TEAD inhibitors disclosed herein on cell proliferation was determined in TEAD1-genetically dependent cell line NCI-H226 (responder cell line) and TEAD-independent cell lines (NCI-H23, HEK293T), as non-responder, negative control. Cells were seeded in 96-well plates (Thermo Scientific #167008) in growth media (RPMI-1640, Gibco #61870-010) for NCI-H226 and NCI-H23 or DMEM (Gibco #31966-021, HEK293T) with […] Heat Inactivated Fetal Bovine Serum (Gibco 10500-064) at 800 (NCI-H226 and HEK-293T) or 2000 (NCI-H23) cells per well at 37° C., […], humidified incubator; 24 hours later, fresh growth media containing test compound or DMSO vehicle was added and incubated with the cells for 144 hrs. TEAD inhibitor stocks were made at a 1000× fold excess in DMSO, and a dose response test compound dose range of 10,000 to 0.1 nM was used. Each treatment was carried out in triplicate. After 144 hrs of treatment, relative cell viability numbers were determined using the CellTiter-Glo 2.0 assay following the manufacturer's instructions. Test plates and CellTiter-Glo 2.0 reagent were allowed to equilibrate to room temperature. CellTiter-Glo 2.0 reagent was added at 1:1 reagent to media ratio to the 96-well cell plates, plates were placed on a plate shaker for 2 minutes and then incubated at room temperature for a further 10 minutes to allow complete cell lysis to occur. The mix was then transferred to white, 96-well luminometer assay plates (Greiner Bio One #655075). Luminescence was quantified using a CLARIOStar Plus multi-mode plate reader (BMG Labtech) in luminescence detection mode with the recommended settings (ultra-Glo pre-set: emission 545-50 nm with autofocus and enhanced dynamic range on). Relative cell density was expressed as a function of inhibitor concentration, with respect to DMSO-only control wells. Data where plotted using GraphPad Prism and IC50 values for the biological effect were calculated using the EC50 non-linear fit function using a sigmoidal, 4-parameter logistic, least squares fit with no constraints.
(§2) For IC50 and EC50 data “A” indicates a value of less than 0.2 μM; the symbol “B” indicates a value in the range of from 0.2 μM up to 1 μM; and the symbol “C” indicates a value of greater than 1 μM. ND: no data.

A further assay concerns NCI-H23 cells. The assay is described as above. It is filed as cell-based. Particulars: Homo sapiens, non-responder cell line, 144 hrs. As for the experimental part:
as §1
a) CellTiter-Glo® 2.0 (Promega #G9243). The effect of the TEAD inhibitors disclosed herein on cell proliferation was determined in TEAD1-genetically dependent cell line NCI-H226 (responder cell line) and TEAD-independent cell lines (NCI-H23, HEK293T), as non-responder, negative control. […] After 144 hrs of treatment, relative cell viability numbers were determined using the CellTiter-Glo 2.0 assay following the manufacturer's instructions. […] Luminescence was quantified using a CLARIOStar Plus multi-mode plate reader (BMG Labtech) in luminescence detection mode with the recommended settings (ultra-Glo pre-set: emission 545-50 nm with autofocus and enhanced dynamic range on). Relative cell density was expressed as a function of inhibitor concentration, with respect to DMSO-only control wells. Data where plotted using GraphPad Prism and IC50 values for the biological effect were calculated using the EC50 non-linear fit function using a sigmoidal, 4-parameter logistic, least squares fit with no constraints. […]

For assay [2], the system named is NCI-H226 cells. As to the kind of experiment: Proliferation and cell viability assay, Cell Titer One. It counts as cell-based, human. Particulars: Cell Titer One assay, 6 days. As for the experimental part:
as §1
b) Cell Titer One (Promega, #G3582). The effect of the TEAD inhibitors disclosed herein on cell proliferation was also determined using the Promega Substrate Cell Titer Aqueous One Solution Reagent. The TEAD inhibitors were evaluated for the effects on cell proliferation responder (H226) and non-responder negative control cancer cell lines (CAMA1, H28), as well as non-transformed normal human cells (HUVEC, NHDF). Dissociated cells were resuspend in media (depending on cell line, either in DMEM, RPMI, or EMEM all with 10% FBS, with gentamicin as an antibiotic). Cells were seeded at 100 μL/well at 750 cells per well in 96-well plates and allowed to settle and attach. After an incubation of 24 hrs (37° C., 5% CO2, humidified incubator), 100 μL of test compound-containing media was added. A dilution series of 2000× concentrated stock of test compounds was prepared in DMSO, for final concentrations from 0.1 to 10,000 nM. After addition of test compound-containing media, cells were incubated for 6 days at 37° C., 5% CO2, humidified incubators). To measure cell density, 20 μL of Promega Substrate Cell Titer 96 Aqueous One Solution Reagent (Promega, #G3582) to each well was added according to the manufacturer's instructions. Plates were incubated at 37° C. for usually 3-8 hrs, to reach in the control cells (without compound) an OD of 1.5 at 490 nm. The OD was measured using Vmax [Molecular Devices] spectrophotometer plate reader. Media only-wells were used as background controls and cell densities normalized to DMSO vehicle control. EC50 were taken as the concentration achieving 50% of maximal growth inhibition.
as §2

A further assay addresses TEAD1 (Homo sapiens, UniProt P28347). As to the kind of experiment: TEAD thermal shift assay (TSA). It counts as binding. The source says:
(§3) Thermal shift assay (TSA) is a biophysical method to evaluate stability of proteins with change in temperature. The assay measures thermal denaturation temperature in varying conditions such as different drug concentration. For this example, fluorogenic dye was used that bind to unfolded proteins. SYPRO Orange binds non-specifically to hydrophobic surfaces, and water strongly quenches its fluorescence. When the protein unfolds, the exposed hydrophobic surfaces bind the dye, resulting in an increase in fluorescence by excluding water. Detergent micelles also bind the dye and increase background noise dramatically. Binding of small molecules to proteins leads to a stabilization against to thermal denaturation with the degree of thermal stabilization proportional to the strength of binding.
(§4) The study described in this example investigated the change in melting temperature (ΔTm) of TEAD isoforms 1-4 when treated with TEAD inhibitors.
(§5) Tris-HCL was dissolved in 5 mL of Cell culture grade water and allowed to dissolve completely. The pH was adjusted to 8 using NaOH. Additional assay buffer components were added in the order listed above. The buffer was mixed slowly.
(§6) Assay buffer was prepared according to the procedures outlined above and dispensed into test wells. Spyro orange was added to a concentration of 5× in the assay buffer, followed by test compound stock solution which was added to a concentration of 10 μM or 30 μM in the assay buffer.
(§7) The melt cycle was performed in Bio-RAD PCR instrument from 20-95° C. with ramp rate of 1° C./min.

The next assay concerns the target TEAD2 (Homo sapiens, UniProt Q15562). As to the kind of experiment: TEAD thermal shift assay (TSA). It counts as binding.
Source text: as §3, §4, §5, §6, §7

For another assay, the target named is TEAD3 (Homo sapiens, UniProt Q99594). Put plainly: TEAD thermal shift assay (TSA). Particulars: Ratio of Protein to Compound 1:1. It counts as binding.
Sequence of TEAD3 (Q99594 whole entry): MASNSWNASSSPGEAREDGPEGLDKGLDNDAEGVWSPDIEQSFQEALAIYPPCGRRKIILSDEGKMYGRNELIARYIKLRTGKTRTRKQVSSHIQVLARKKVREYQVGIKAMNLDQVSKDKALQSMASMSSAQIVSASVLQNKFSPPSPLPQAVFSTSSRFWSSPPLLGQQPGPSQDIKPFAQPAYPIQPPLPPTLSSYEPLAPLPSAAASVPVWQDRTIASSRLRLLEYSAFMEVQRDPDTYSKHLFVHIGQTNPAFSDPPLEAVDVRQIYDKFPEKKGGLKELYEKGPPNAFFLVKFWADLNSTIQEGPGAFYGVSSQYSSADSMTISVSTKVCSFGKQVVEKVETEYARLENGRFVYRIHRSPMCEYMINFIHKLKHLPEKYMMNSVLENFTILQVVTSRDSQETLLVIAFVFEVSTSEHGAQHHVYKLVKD
Source text: as §3, §4, §5, §6, §7

Another assay addresses TEAD4 (Homo sapiens, UniProt Q15561). Put plainly: TEAD thermal shift assay (TSA). It is filed as binding.
Source text: as §3, §4, §5, §6, §7

The next assay deals with TEAD isoforms 1-4. Put plainly: TEAD thermal shift assay (TSA), outcome in words. It is filed as binding, human.
Source text: as §3, §4, §5, §6, §7

In the next assay the test system is TEAD. The note with it: control compounds; cited from earlier work.
Where [3] appears, read: Ratio of Protein to Compound 1:1.
The mark [4] stands for this setting: Ratio of Protein to Compound 1:3.

Sequence of TEAD1 (P28347 whole entry): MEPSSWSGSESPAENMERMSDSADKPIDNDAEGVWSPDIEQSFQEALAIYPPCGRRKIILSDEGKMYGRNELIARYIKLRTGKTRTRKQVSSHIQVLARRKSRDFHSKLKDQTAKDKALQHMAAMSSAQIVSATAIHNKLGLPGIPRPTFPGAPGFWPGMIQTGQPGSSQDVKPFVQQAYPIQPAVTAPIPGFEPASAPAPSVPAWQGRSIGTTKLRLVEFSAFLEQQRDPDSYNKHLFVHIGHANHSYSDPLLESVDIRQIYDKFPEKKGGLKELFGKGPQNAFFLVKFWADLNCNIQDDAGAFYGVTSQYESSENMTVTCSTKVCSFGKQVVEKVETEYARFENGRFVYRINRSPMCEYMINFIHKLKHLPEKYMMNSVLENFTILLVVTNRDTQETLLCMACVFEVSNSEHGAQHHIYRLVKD
Sequence of TEAD4 (Q15561 whole entry): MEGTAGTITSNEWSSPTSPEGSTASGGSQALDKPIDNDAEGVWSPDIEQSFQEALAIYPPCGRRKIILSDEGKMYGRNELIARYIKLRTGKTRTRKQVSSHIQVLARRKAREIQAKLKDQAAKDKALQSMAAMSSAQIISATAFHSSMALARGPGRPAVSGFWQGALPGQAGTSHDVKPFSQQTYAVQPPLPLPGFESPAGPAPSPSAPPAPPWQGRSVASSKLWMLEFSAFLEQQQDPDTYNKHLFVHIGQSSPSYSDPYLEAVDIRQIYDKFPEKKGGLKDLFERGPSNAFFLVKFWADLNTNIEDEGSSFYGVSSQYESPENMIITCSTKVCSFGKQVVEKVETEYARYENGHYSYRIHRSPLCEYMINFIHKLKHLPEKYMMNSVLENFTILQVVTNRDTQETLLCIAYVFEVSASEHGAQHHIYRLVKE
Sequence of TEAD2 (Q15562 whole entry): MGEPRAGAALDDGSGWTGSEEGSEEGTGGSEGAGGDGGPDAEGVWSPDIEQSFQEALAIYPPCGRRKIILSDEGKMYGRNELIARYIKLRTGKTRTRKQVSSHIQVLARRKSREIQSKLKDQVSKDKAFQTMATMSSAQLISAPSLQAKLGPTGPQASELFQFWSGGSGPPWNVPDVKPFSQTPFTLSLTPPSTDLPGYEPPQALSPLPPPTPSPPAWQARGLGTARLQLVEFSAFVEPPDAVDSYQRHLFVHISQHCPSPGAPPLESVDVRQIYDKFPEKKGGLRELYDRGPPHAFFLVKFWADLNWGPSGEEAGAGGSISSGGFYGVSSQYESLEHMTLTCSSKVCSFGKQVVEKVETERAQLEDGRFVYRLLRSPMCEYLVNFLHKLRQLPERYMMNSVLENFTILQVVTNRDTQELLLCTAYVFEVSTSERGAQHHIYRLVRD

Usually EC50 stands for the concentration that produces a half-maximal response. A low value points to a more potent agent. In general, IC50 refers to the concentration needed to halve the response being measured. Read a low IC50 as higher potency. On to `Cc1nnc(-c2cc(C3(C)CCNC3=O)ccc2Nc2ccc(C(F)(F)F)cc2)o1` (racemic) [Compound 1, 3-methyl-3-(3-(5-methyl-1,3,4-oxadiazol-2-yl)-4-((4-(trifluoromethyl)phenyl)amino)phenyl) pyrrolidin-2-one], for which, in the assay on NCI-H226 cells [1], the EC50 was less than 200 nM. In addition, the IC50 in the assay with NCI-H23 cells was more than 1000 nM; with NCI-H226 cells [2] (Homo sapiens, NCI-H226, 144 h) it was less than 200 nM.
As to `Cn1cnc(-c2cc(C3(C)CCNC3=O)ccc2Nc2ccc(C(F)(F)F)cc2)c1` (racemic) [Compound 2, 3-methyl-3-(3-(1-methyl-1H-imidazol-4-yl)-4-((4-(trifluoromethyl)phenyl)amino)phenyl) pyrrolidin-2-one], the EC50 in the assay with NCI-H226 cells [1] is less than 200 nM. Moreover, the half-maximal inhibitory concentration (IC50) in the assay on NCI-H23 cells is more than 1000 nM; in the assay on NCI-H226 cells [2] (Homo sapiens, NCI-H226, 144 h), less than 200 nM.
As to `Cn1cnc(-c2cc(C3(C)NC(=O)NC3=O)ccc2Nc2ccc(C(F)(F)F)cc2)c1` (single isomer, unassigned) [Compound 14, 5-methyl-5-(3-(1-methyl-1H-imidazol-4-yl)-4-((4-(trifluoromethyl)phenyl)amino)phenyl)imidazolidine-2,4-dione], in the assay with NCI-H226 cells [1], the EC50 was less than 200 nM. Further, the IC50 in the assay with NCI-H226 cells [2] is more than 1000 nM.
Regarding `C[C@H](NC(=O)c1ccc2c(-c3ccc(C(F)(F)F)cc3)cccc2c1)c1cccc(N)n1` [Compound 1-4], the “TEAD1 ΔTm” value was determined as 7.5 °C on TEAD1 (setting [3]) and 11 °C at TEAD1 (setting [4]). Further, the “TEAD2 ΔTm” value at TEAD2 (setting [3]) came out at 2.5 °C; at TEAD2 (setting [4]), 11 °C. In addition, the “TEAD3 ΔTm” value on TEAD3 was determined as 3 °C. Moreover, the “TEAD4 ΔTm” value worked out at 1.5 °C at TEAD4 (setting [3]) and 11 °C at TEAD4 (setting [4]). Besides, the “thermal shift / TEAD binding (in words)” value in the assay on TEAD isoforms 1-4 is listed as “thermal shifts for all four TEAD isoforms”. In addition, in the assay with TEAD, the “known TEAD inhibition (in words)” value is “pan-TEAD inhibitor”.
In the assay with NCI-H226 cells [1], `Cn1cnc(-c2cc(CN3CCNC3=O)ccc2Nc2ccc(C(F)(F)F)cc2)c1` [Compound 3, 1-(3-(1-methyl-1H-imidazol-4-yl)-4-((4-(trifluoromethyl)phenyl)amino)benzyl)imidazolidin-2-one] showed an EC50 of less than 200 nM. In addition, the IC50 in the assay with NCI-H226 cells [2] (Homo sapiens, NCI-H226, 144 h) is less than 200 nM.
In the assay with NCI-H226 cells [1], `Cn1cnc(-c2cc(CN3CC(=O)NC3=O)ccc2Nc2ccc(C(F)(F)F)cc2)c1` [Compound 4, 1-(3-(1-methyl-1H-imidazol-4-yl)-4-((4-(trifluoromethyl)phenyl)amino)benzyl) imidazolidine-2,4-dione] had an EC50 of less than 200 nM. The compound further registered an IC50 in the assay on NCI-H226 cells [2] (Homo sapiens, NCI-H226, 144 h) of less than 200 nM.
`CC1(c2ccc(Nc3ccc(C(F)(F)F)cc3)c(-c3ncco3)c2)CCNC1=O` (stereo not drawn) [Compound 10, 3-methyl-3-(3-(oxazol-2-yl)-4-((4-(trifluoromethyl)phenyl)amino)phenyl) pyrrolidin-2-one]: the EC50 in the assay on NCI-H226 cells [1] is less than 200 nM. Besides, the IC50 in the assay on NCI-H226 cells [2] (Homo sapiens, NCI-H226, 144 h) is less than 200 nM.
As for `CC1(c2ccc(Nc3ccc(C(F)(F)F)cc3)c(-c3cccnn3)c2)CCNC1=O` (stereo not drawn) [Compound 12, 3-methyl-3-(3-(pyridazin-3-yl)-4-((4-(trifluoromethyl)phenyl)amino)phenyl) pyrrolidin-2-one], the EC50 in the assay on NCI-H226 cells [1] was less than 200 nM. This compound also yielded an IC50 in the assay on NCI-H226 cells [2] (Homo sapiens, NCI-H226, 144 h) of more than 1000 nM.
Consider `CC1(c2ccc(Nc3ccc(C(F)(F)F)cc3)c(-c3cnccn3)c2)CCNC1=O` (stereo not drawn) [Compound 13, 3-methyl-3-(3-(pyrazin-2-yl)-4-((4-(trifluoromethyl)phenyl)amino)phenyl) pyrrolidin-2-one], for which the EC50 with NCI-H226 cells [1] is less than 200 nM. In the assay with NCI-H226 cells [2] (Homo sapiens, NCI-H226, 144 h), this compound came in with an IC50 of more than 1000 nM.

The values are drawn from patent US20260317304A1, “TEAD INHIBITORS AND METHODS OF USE” (Sporos BioDiscovery, Inc., priority 2022, published 2026).
